Laboratory results: patent publication US20260315565A1, “ANTIOXIDANT-CONTAINING EYE DROP FORMULATIONS AND METHODS OF PREVENTION AND/OR TREATMENT USING SAME” (Marizyme, Inc., priority 2022, published 2026)

Experiments:
[1] = accelerated stability of ascorbic acid in eye drop formulations (UV-VIS, 260 nm); assay type: physicochemical; conditions: stored at 40° C. for 30 days; pH 3.5 vs pH 5
Method: (§1) Namely, appropriate amounts of the various components were weighed and then mixed with “Water for Injection” (WFI) at room temperature in a laminar flow hood to achieve the concentrations listed in Table 1. The various components were dissolved in the WFI using a magnetic stir bar and stirring at 350 rpm, or any appropriate mixing speed, until dissolution was complete. The final pH of each formulation was adjusted to pH 3.5 or pH 5.0, as listed in Table 1, using 5N HCl or 5N NaOH, respectively. The resulting solutions were then passed through a 0.21, […] filter while filling sterile vials with the respective formulations for use in stability studies. […]
(§2) At each point in the testing schedule, physical properties, such as clarity, color, odor, particle count and the like, of the formulations stored in the pulled vials were examined by physical observation. Concentrations of the antioxidants were also measured, and analytical tests of the formulations in the vials were carried out according to the protocol listed in Table 3.
(§3) The analytical assay method for stability testing of total thiols and ascorbic acid in eyedrop formulations (UV-VIS in Table 3) are performed as follows. […] Both components are measured on one sample preparation. […] By applying the appropriate dilution and conversion factors, the concentration of each component in the formulation can be calculated. […]

[2] = accelerated stability of glutathione (total thiols) in eye drop formulations (UV-VIS with DTNB, 412 nm); assay type: physicochemical; conditions: stored at 40° C. for 30 days
Method: as §1, §2, §3

Compound | stability of ascorbic acid [1] | effect of higher molar ratios of ascorbic acid on glutathione stability [2]
O=C1O[C@H]([C@@H](O)CO)C(O)=C1O [ascorbic acid, L-ascorbic acid] | more stable at the lower pH of 3.5 compared to pH 5 | –
N[C@@H](CCC(=O)N[C@@H](CS)C(=O)NCC(=O)O)C(=O)O [glutathione, L-glutathione] | – | destabilizing effect of higher molar ratios of ascorbic acid on glutathione
